The text below walks through data of patent publication US8017644B2, “2-arylindole derivatives as nPGES-1 inhibitors” (Aziende Chimiche Riunite Angelini Francesco A.C.R.A.F. …, priority 2006, dated 2011).

For experiment [1], the system named is production of PGF2α in A549 cells. As to the kind of experiment: Inhibition of PGF2α production in IL-1β-stimulated A549 cells (EIA), selectivity. To be noted: Homo sapiens; for inhibition at 10 µM: compound at 10 μm; for IC50: IL-1β-stimulated, read-out: pIC50 PGF2α (converted). It counts as cell-based. An excerpt:
(§1) The test used makes it possible to evaluate the inhibitory capacity of the test compounds on the production of PGE2 and the selectivity relative to the production of PGF2α. The human pulmonary adenocarcinoma cell line A549 was used, which is particularly sensitive to stimulation with proinflammatory cytokines, for instance IL-1β, and, in response to this stimulation, is particularly active in the production and release of two prostanoids: PGE2 and PGF2α (Thoren S. Jakobsson P-J, 2000).
(§2) The cells were stimulated with IL-1β (10 ng/ml) and simultaneously treated with the test compound for 22 hours in a suitable culture medium (DMEM—Dulbecco's Modified Eagles Medium) enriched with 5% fetal calf serum and L-glutamine (4 mM final) in an incubator at 37° C. and with a CO2 concentration of 5%.
(§3) At the end of the incubation, the amount of PGE2 and PGF2α, produced and released into the supernatant were assayed using an EIA kit (produced and sold by Cayman Chemicals, Ann Arbor, Mich., USA).
(§4) The comparative compound used was indomethacin at a concentration of 10 nM (Sigma-Aldrich), which is a non-steroidal anti-inflammatory drug that inhibits in equal measure both PGE2 and PGF2α.
(§5) For illustrative purposes, Table 3 collates the pIC50 values of a number of compounds of the invention, where pIC50 represents the negative logarithm of the IC50, which, in turn, represents the concentration of compound that inhibits the production of PGE2 or PGF2α by 50% relative to cells that are stimulated but not treated with the same compound.

The test system of experiment [2] is production of PGE2 in A549 cells (mPGES-1). Briefly: Inhibition of PGE2 production in IL-1β-stimulated A549 cells (EIA). It counts as cell-based. As to conditions: Homo sapiens; for inhibition at 10 µM: compound at 10 μm; for IC50: IL-1β-stimulated, read-out: pIC50 PGE2 (converted).
Excerpt: as §1, §2, §3, §4, §5

The subject of experiment [3] is production of PGE2 in U-937 cells (cPGES). Briefly: Inhibition of basal PGE2 production in U-937 cells (selectivity between isoforms of PGES). In kind it is cell-based. As to conditions: Homo sapiens, basal conditions; for inhibition at 10 µM: compound at 10 μM. An excerpt:
The test used makes it possible to evaluate the capacity of the compounds of the invention to inhibit the production of PGE2 in a human lymphoma cell line U-937 that preferentially expresses an enzymatic isoform (cPGES), which is responsible for the production of PGE2 under basal conditions, in the absence of pro-inflammatory stimuli. This enzymatic form is different from the one predominantly expressed in the A549 cells (mPGES-1) after a pro-inflammatory stimulus.
The absence of inhibitory activity on PGE2 in this cell model ensures the selectivity of the compound compared with the enzymatic form responsible for the production of PGE2 in the presence of inflammatory stimuli.
The reference compound used was indomethacin at a concentration of 10 nM.

Experiment [4] concerns acetic acid-induced stretching in mice. Briefly: Acetic acid-induced stretching in mice (inflammatory pain). To be noted: female CD-1 mice; for No. of stretches: 20 minutes after acetic acid, vehicle 52; for % inhibition (stretches): vs vehicle (MTC). In kind it is in vivo. The method, then: The test compound was evaluated in the model of acetic acid-induced stretching in mice (Stock J. L. et al., J Clin Inv 2001, 107: 325-331). This test makes it possible to evaluate the antinociceptive activity of the compounds of the invention in a model of inflammatory pain.
Female CD-1 mice weighing 25-30 g were used for the test. The animals were treated intraperitoneally with the test compound (0.1-10 mg/kg) suspended in methylcellulose (MTC). The control animals were treated with the vehicle alone (MTC) via the same route.
30 minutes after the treatment, the animals received an intraperitoneal injection of acetic acid (0.7 v/v in physiological solution, 16 μl/g of body weight) in order to induce inflammatory pain and to check the effects of the test compound on the nociceptive response.
Immediately after the administration of acetic acid and for the following 20 minutes, the number of stretches, which represents the parameter for evaluation of the nociceptive response, was measured.

Setting [5] is: indomethacin at 10 nM, IL-1β 10 ng/ml, 22 hours.

Turning to `CCn1c(-c2ccc(OC)cc2)cc2cc(NC(=O)c3ccccc3Cl)ccc21` [Compound 30], the inhibition at 10 µM in experiment [1] (IL-1β 10 ng/ml, 22 hours) was below 20%; in experiment [2] (IL-1β 10 ng/ml, 22 hours), 75%.

For `CCn1c(-c2ccccc2)cc2cc(NC(=O)c3cc([N+](=O)[O-])ccc3Cl)ccc21` [Compound 12], the inhibition at 10 µM in experiment [1] (IL-1β 10 ng/ml, 22 hours) is below 20%; in experiment [2] (IL-1β 10 ng/ml, 22 hours), 75%.

Take `CCn1c(-c2ccccc2C)cc2cc(NC(=O)c3ccccc3Cl)ccc21` [Compound 18]: the inhibition at 10 µM in experiment [1] (IL-1β 10 ng/ml, 22 hours) was below 20%; in experiment [2] (IL-1β 10 ng/ml, 22 hours) it was 66%; in experiment [3], below 20%. For the same compound, the IC50 in experiment [2] is 2.51 µM.

Consider `CCn1c(-c2ccc(C)cc2)cc2cc(NC(=O)c3ccccc3Cl)ccc21` [Compound 20], for which the results for the IC50 in experiment [1] and in experiment [2] were above 100 µM and 3.16 µM, respectively. Besides, the inhibition at 10 µM in experiment [1] (IL-1β 10 ng/ml, 22 hours) is below 20%; in experiment [2] (IL-1β 10 ng/ml, 22 hours) it was 75%; in experiment [3], below 20%.

For the compound `CCn1c(-c2ccccc2)c(C)c2cc(NC(=O)c3ccccc3Cl)ccc21` [Compound 7], the inhibition at 10 µM was 39% in experiment [1] (IL-1β 10 ng/ml, 22 hours) and 90% in experiment [2] (IL-1β 10 ng/ml, 22 hours).

For `CCn1c(-c2ccccc2)cc2cc(NC(=O)c3c(Cl)cccc3Cl)ccc21` [Compound 10], the IC50 in experiment [1] is above 100 µM; in experiment [2], 2 µM. Also, the inhibition at 10 µM in experiment [1] (IL-1β 10 ng/ml, 22 hours) was below 20%; in experiment [2] (IL-1β 10 ng/ml, 22 hours) it was 76%; in experiment [3], 22%.

Take `CCn1c(-c2ccc(F)cc2)cc2cc(NC(=O)c3ccccc3Cl)ccc21` [Compound 6]: the inhibition at 10 µM in experiment [1] (IL-1β 10 ng/ml, 22 hours) is below 20%; in experiment [2] (IL-1β 10 ng/ml, 22 hours) it was 82%; in experiment [3], below 20%. For the same compound, the IC50 in experiment [2] is 1.58 µM.

In the case of `CCn1c(-c2cccc(Cl)c2C)cc2cc(NC(=O)c3ccccc3Cl)ccc21` [Compound 28], the inhibition at 10 µM was below 20% in experiment [1] (IL-1β 10 ng/ml, 22 hours) and 65% in experiment [2] (IL-1β 10 ng/ml, 22 hours).

Consider `Cn1c(-c2ccccc2)cc2cc(NC(=O)c3ccccc3Cl)ccc21` [Compound 1], for which the inhibition at 10 µM is below 20% in experiment [1] (IL-1β 10 ng/ml, 22 hours) and 63% in experiment [2] (IL-1β 10 ng/ml, 22 hours).

For the compound `CCOc1ccc(-c2cc3cc(NC(=O)c4ccccc4Cl)ccc3n2CC)cc1` [Compound 21], the inhibition at 10 µM in experiment [1] (IL-1β 10 ng/ml, 22 hours) is below 20%; in experiment [2] (IL-1β 10 ng/ml, 22 hours), 66%.

For `CCn1c(-c2ccccc2)cc2cc(NC(=O)c3ccccc3Cl)ccc21` [Compound 2], the inhibition at 10 µM in experiment [1] (IL-1β 10 ng/ml, 22 hours) was below 20%; in experiment [2] (IL-1β 10 ng/ml, 22 hours), 76%; in experiment [3] it was below 20%. In addition, the No. of stretches turned out to be 38 in experiment [4] (0.1 mg/kg intraperitoneally), 36 in experiment [4] (1 mg/kg intraperitoneally) and 25 in experiment [4] (10 mg/kg intraperitoneally). Moreover, the “% inhibition (stretches)” value worked out at 27% in experiment [4] (0.1 mg/kg intraperitoneally), 31% in experiment [4] (1 mg/kg intraperitoneally) and 52% in experiment [4] (10 mg/kg intraperitoneally). For the same compound, the IC50 in experiment [2] was 2 µM.

Regarding `CCn1c(-c2ccc(OCc3ccccc3)cc2)cc2cc(NC(=O)c3ccccc3Cl)ccc21` [Compound 22], the inhibition at 10 µM in experiment [1] (IL-1β 10 ng/ml, 22 hours) was below 20%; in experiment [2] (IL-1β 10 ng/ml, 22 hours), 79%.

In the case of `CCn1c(-c2ccccc2)cc2cc(NC(=O)c3cc(Cl)ccc3Cl)ccc21` [Compound 13], the inhibition at 10 µM is 36% in experiment [1] (IL-1β 10 ng/ml, 22 hours); 100% in experiment [2] (IL-1β 10 ng/ml, 22 hours); 30% in experiment [3]. Besides, in experiment [2], the IC50 is 0.794 µM.

On to `CCn1c(-c2ccccc2)cc2cc(NC(=O)c3ccccc3C(F)(F)F)ccc21` [Compound 9], for which the IC50 was 50.1 µM in experiment [1] and 1.26 µM in experiment [2]. Further, the inhibition at 10 µM in experiment [1] (IL-1β 10 ng/ml, 22 hours) was below 20%; in experiment [2] (IL-1β 10 ng/ml, 22 hours), 100%; in experiment [3], below 20%.

In the case of `CC(C)n1c(-c2ccccc2)cc2cc(NC(=O)c3ccccc3Cl)ccc21` [Compound 3], the inhibition at 10 µM in experiment [1] (IL-1β 10 ng/ml, 22 hours) turned out to be 34%; in experiment [2] (IL-1β 10 ng/ml, 22 hours) it was 91%.

Regarding `CCn1c(-c2cccc3ccccc23)cc2cc(NC(=O)c3ccccc3Cl)ccc21` [Compound 24], the inhibition at 10 µM is below 20% in experiment [1] (IL-1β 10 ng/ml, 22 hours) and 79% in experiment [2] (IL-1β 10 ng/ml, 22 hours).

For the compound `COc1ccc2c(c1)c(CC(=O)O)c(C)n2C(=O)c1ccc(Cl)cc1` [Indomethacin, indomethacin, reference compound], the results for the IC50 in experiment [1] and in experiment [2] were 0.00251 µM and 0.00501 µM, respectively. In addition, the inhibition at 0.01 µM in experiment [1] (setting [5]) was found to be 100%; in experiment [2] (setting [5]), 100%; in experiment [3] (indomethacin at 10 nM) it was 78%.

Turning to `CCn1c(-c2ccc(C)c(C)c2)cc2cc(NC(=O)c3ccccc3Cl)ccc21` [Compound 29], the inhibition at 10 µM is below 20% in experiment [1] (IL-1β 10 ng/ml, 22 hours) and 91% in experiment [2] (IL-1β 10 ng/ml, 22 hours).

As to `CCn1c(-c2ccccc2)cc2cc(NC(=O)c3ccccc3[N+](=O)[O-])ccc21` [Compound 16], the inhibition at 10 µM is below 20% in experiment [1] (IL-1β 10 ng/ml, 22 hours) and 74% in experiment [2] (IL-1β 10 ng/ml, 22 hours).

Take `CCn1c(-c2cccc(C)c2)cc2cc(NC(=O)c3ccccc3Cl)ccc21` [Compound 19]: the IC50 in experiment [1] was 100 µM; in experiment [2], 1 µM. The inhibition at 10 µM in experiment [1] (IL-1β 10 ng/ml, 22 hours) was 43%; in experiment [2] (IL-1β 10 ng/ml, 22 hours), 87%; in experiment [3] it was below 20%.

As for `CCn1c(-c2cccc(F)c2)cc2cc(NC(=O)c3ccccc3Cl)ccc21` [Compound 5], the inhibition at 10 µM in experiment [1] (IL-1β 10 ng/ml, 22 hours) came out at 36%; in experiment [2] (IL-1β 10 ng/ml, 22 hours) it was 91%.

For the compound `CCn1c(-c2ccccc2F)cc2cc(NC(=O)c3ccccc3Cl)ccc21` [Compound 4], the inhibition at 10 µM in experiment [1] (IL-1β 10 ng/ml, 22 hours) was below 20%; in experiment [2] (IL-1β 10 ng/ml, 22 hours), 72%.

Regarding `CCn1c(-c2ccc(Cl)c(C)c2)cc2cc(NC(=O)c3ccccc3Cl)ccc21` [Compound 25], the inhibition at 10 µM in experiment [1] (IL-1β 10 ng/ml, 22 hours) is below 20%; in experiment [2] (IL-1β 10 ng/ml, 22 hours), 89%.
